What was measured:
BID = assay: Western blot for BID cleavage and mitochondrial translocation; format: cell-based, human
Procedure: Cells were homogenized at 4°C in 50 mM Tris-HCl (pH 8) containing 0.1% Nonidet-P40 (NP-40), 200 mM KCl, 2 mM MgCl2, 50 μM ZnCl2, 2 mM DTT, and protease inhibitors [1 mM phenylmethylsulfonyl fluoride (PMSF), 1 mg/mL leupeptin, and 1 mg/mL antipain]. Aliquots of the homogenates (40 μg total protein/lane) were loaded on SDS-polyacrylamide gels at the appropriate concentrations. Electrophoresis was performed at 100 V with a running buffer containing 0.25 M Tris-HCl (pH 8.3), 1.92 M glycine, and 1% SDS. The resolved proteins were electroblotted onto a nitrocellulose membrane using the iBlot™ system (Invitrogen, Carlsbad, CA). Membranes were then incubated with a mouse monoclonal IgG antibody to poly(ADP-ribose) polymerase (PARP) (Zymed, South San Francisco, CA), with a rabbit polyclonal IgG antibody to BID (Cell Signaling Technology, Danvers, MA) or with a rabbit polyclonal IgG antibody to α-tubulin (Cell Signaling Technology). The membranes were then washed and incubated with an anti-mouse or anti-rabbit IgG peroxidase-conjugated antibody (Cell Signaling Technology). The blots were washed again and then incubated with enhanced chemiluminescent detection reagents (Immun-Star™ WesternC™ Kit, Bio-Rad, Hercules, CA) according to the manufacturer's instructions. Proteins were detected using the ChemiDoc XRS Imaging System (Bio-Rad). […]

[1] = test system: HUVECs, fibroblasts and hepatocytes; assay: Sparing of normal non-hematologic cells (personal observation); format: cell-based
CD34^+ cells = assay: Cytotoxicity in normal bone marrow cells, TruCOUNT flow cytometry; format: cell-based, human; conditions: for cytotoxicity: 24 hours, mean ± SD; for IC50: Homo sapiens, Bone marrow cell, 24 h, 24-hour
Procedure: (§1) Viable peripheral blood leukocytes and bone marrow cells from - 4 - control donors were treated and used as specified above for leukemic cells.
(§2) Cells derived from patients or normal donors were exposed for 24 hours to 20, 40, 80, and 160 μM α-bisabolol dissolved in ethanol (1:8 in order to minimize drug volumes), and when appropriate to 3 μM imatinib mesylate (Novartis, Basel, CH), representative of the in vivo active concentration. All cytotoxicity tests were performed in triplicate.
(§3) The absolute counts of normal leukocytes sub-populations were measured with TruCOUNT tubes (Becton Dickinson, San Jose, CA) by polychromatic flow cytometry according to the manufacturer's instructions with minor modifications. Peripheral blood and bone marrow cells were cultured with α-bisabolol for 24, 48, 72, 96 and 120 hours. At the end of the culture, 200 μL of sample, a mixture of antibodies (CD45 APC-H7, CD3 PE-Cy7, CD19 PE, CD14 APC for peripheral blood and CD45 APC-H7, CD34 PE, CD33 PE-Cy7 for bone marrow) and 7-amino-actinomycin D (all reagents from Becton Dickinson) for dead cells exclusion were added to the TruCOUNT tubes. After a 15-minute incubation at room temperature, 1 mL lysing reagent (Biosource, Nivelles, BE) was added for 10 minutes. A total of 40,000 beads were acquired on a FACSCanto cytometer (Becton Dickinson). A sequential Boolean gating strategy was used to accurately enumerate different populations.
(§4) Student's t-test for means, chi-squared tests, Mann-Whitney U test and Kruskall-Wallis analysis of variance by ranks were considered significant for p values < 0.05.

CD33^+my cells = assay: as above; format: cell-based, human; conditions: 5 normal bone marrow samples; for cytotoxicity: 24 hours, mean ± SD
Procedure: as §1, §2, §3, §4

CC(C)=CCC[C@](C)(O)[C@@H]1CC=C(C)CC1 [α-bisabolol]
cleavage of BID to truncated BID (BID; 24-hour α-bisabolol, any concentration, PBMCs and blasts): did not induced the cleavage of BID
BID translocation to mitochondrial fraction (BID; different times and solubilized doses of α-bisabolol): No BID translocation was detected
effect of concentrations active on leukemias on normal cells [1]: spared
cytotoxicity (CD34^+ cells; CD34^+, 5 normal bone marrow samples, 20 μM α-bisabolol): 1 ± 2%
cytotoxicity (CD34^+ cells; CD34^+, 5 normal bone marrow samples, 40 μM α-bisabolol): 22 ± 19%
cytotoxicity (CD34^+ cells; CD34^+, 5 normal bone marrow samples, 80 μM α-bisabolol): 72 ± 35%
cytotoxicity (CD34^+ cells; CD34^+, 5 normal bone marrow samples, 160 μM α-bisabolol): 98 ± 1%
IC50 (CD34^+ cells; CD34^+, 5 normal bone marrow samples): 62 ± 9 µM
IC50 (CD34^+ cells; CD34^+/19^+ cells, normal bone marrow): 63 ± 4 µM
IC50 (CD34^+ cells; CD34^+/33^+ cells, normal bone marrow): 64 ± 6 µM
cytotoxicity (CD33^+my cells; 20 μM α-bisabolol): 2 ± 2%
cytotoxicity (CD33^+my cells; 40 μM α-bisabolol): 4 ± 3%
cytotoxicity (CD33^+my cells; 80 μM α-bisabolol): 40 ± 39%
cytotoxicity (CD33^+my cells; 160 μM α-bisabolol): 99 ± 1%
IC50 (CD33^+my cells; Homo sapiens, Bone marrow cell, 24-hour): 95 ± 7 µM

Source: PMC3112094, “Pro-apoptotic activity of α-bisabolol in preclinical models of primary human acute leukemia cells” (Journal of Translational Medicine, 2011)
